# Measurements as given in publication PMC5698418 (Nature Communications, 2017).
# Changes are numbered by the printed parent chain. Numbers in names are those of the source. Starred links: 1 amine or outer side, 2 acyl side, 3 side chain; linkers in the order of their positions; H or OH if unused. Positions of bridges follow the written chain, without caps; N, C: chain ends. Non-standard residues stand in square brackets, D forms with d. Residues, ends and D or L forms follow the SMILES beside them. Chains are numbered I, II in the order given. Actinocin(9to1) = Cc1c2oc3c(C)ccc(C(=O)[*:1])c3nc-2c(C(=O)[*:2])c(N)c1=O; NMeV = CN[C@H](C(=O)O)C(C)C; Sar = CNCC(=O)O
# B1: WT: wild-type mouse Arc-Myc-FLAG protein overexpressed in Neuro2a cells (protein, UniProt Q9WV31 1-396, looked up)
# Activity-regulated …: MELDHMTTGGLHAYPAPRGGPAAKPNVILQIGKCRAEMLEHVRRTHRHLLTEVSKQVERELKGLHRSVGKLENNLDGYVPTGDSQRWKKSIKACLCRCQETIANLERWVKREMHVWREVFYRLERWADRLESMGGKYPVGSEPARHTVSVGVGGPEPYCQEADGYDYTVSPYAITPPPAAGELPEQESVEAQQYQSWGPGEDGQPSPGVDTQIFEDPREFLSHLEEYLRQVGGSEEYWLSQIQNHMNGPAKKWWEFKQGSVKNWVEFKKEFLQYSEGTLSREAIQRELELPQKQGEPLDQFLWRKRDLYQTLYVDAEEEEIIQYVVGTLQPKLKRFLRHPLPKTLEQLIQRGMEVQDGLEQAAEPSGTPLPTEDETEALTPALTSESVASDRTQPE
# modifications: Myc-FLAG tag
# B2: K33Q: acetyl-mimic/unmodifiable mutant Arc-Myc-FLAG, lysine 33 to glutamine (protein, UniProt Q9WV31 1-396, looked up, variant K33Q)
# Activity-regulated …: B1 Activity-regulated … with K33Q
# modifications: Myc-FLAG tag
# notes: acetyl-mimic/unmodifiable mutant Arc-Myc-FLAG, lysine 33 to glutamine
# B3: K55Q: acetyl-mimic/unmodifiable mutant Arc-Myc-FLAG, lysine 55 to glutamine (protein, UniProt Q9WV31 1-396, looked up, variant K55Q)
# Activity-regulated …: B1 Activity-regulated … with K55Q
# modifications: Myc-FLAG tag
# notes: acetyl-mimic/unmodifiable mutant Arc-Myc-FLAG, lysine 55 to glutamine
# What was measured:
# primary cortical neurons = conditions: screen at 16.7 µM, excluded from data analysis
# Protocol: All 319 compounds were initially tested at a final concentration of 16.7 µM with three biological replicates.
# (§1) Screening of compounds in the chemogenomic library was carried out using DIV13 primary forebrain cortical neurons cultured on poly-L-lysine/laminin-coated 96-well plates (Ibidi USA, Madison, WI). Cells were seeded at a density of 30,000 cells per well and treated with the compound library and BDNF according to the experimental design presented in Fig. 3a. After experimental treatment, cells were processed for Arc and acetyl-H3K9 immunocytochemistry according to the protocol described above. Both antigens (Arc and acetyl-H3K9) were imaged using an IN Cell Analyzer 6000 imaging system and a ×40 objective. […] High-throughput quantification of nuclear Arc immunofluorescence signal was performed in a similar fashion than the low-throughput procedure described above but with the exception that acetyl-H3K9 was used as a nuclear mask to guide the automated quantification of nuclear Arc immunofluorescence signal.
# acetyl-H3K9 = test: Acetyl-H3K9 immunofluorescence in neuronal nuclei (multiplexed in screen); format: cell-based, mouse; conditions: screen, 16.7 µM
# Protocol: To increase the throughput of our pharmacological screening for modulators of Arc, the above mentioned assay was adapted to cultures of mouse primary cortical neurons in 96-well plates.
# as §1
# [1] = system: BDNF-induced nuclear Arc expression in primary cortical neurons; test: Chemogenomic screen: high-content image-based assay of BDNF-induced nuclear Arc expression (96-well); format: cell-based, mouse; conditions: 16.7 µM, BDNF
# Procedure, shortened: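 Nuclear Arc immunofluorescence is quantified automatically within an acetyl-H3K9-defined nuclear mask from ×40 images. Cultures are DIV13 mouse forebrain cortical neurons seeded at 30,000 per well and exposed to BDNF plus compound at a final 16.7 µM, with triplicate biological replicates.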
# [2] = system: nuclear Arc in primary cortical neurons; test: Low-throughput nuclear Arc immunofluorescence assay (coverslips, Map2-positive cells); format: cell-based, mouse; conditions: co-treated with BDNF 6 h; k252a 100 nM, ActD 2 ng ml−1, CHX 50 µg ml−1, U0126 10 µM
# Description: Next, using fluorescent immunocytochemistry we assessed to what extent the observed induction of total Arc protein expression measured by western blotting corresponded to an accumulation of Arc in the nucleus of our cultured neurons. We chose to focus on nuclear Arc at this point based on the assumption that it would provide a robust and easily tractable phenotype for testing a large set of compounds with the help of a quantitative, single-cell level, high-content, image-based screen. […] On the other hand, many but not all of the neurons in cultures that were treated with BDNF for 6 h had high levels of Arc in their nuclei (Fig. 2b). […] Finally, to further evaluate the sensitivity of our method to quantify nuclear Arc expression, we tested four pharmacological inhibitors predicted to prevent BDNF-induced Arc expression. […] These experimental results with known mechanism of action compounds critically guided the design and interpretation of the chemogenomic screen performed next.
# Indirect immunofluorescence detection of antigens was carried out using cortical neurons cultured on poly-L-lysine/laminin-coated coverslips in 24-well plates at a density of 0.1 × 10^7 per well. After experimental treatment, cells were washed twice with PBS and fixed for 30 min at room temperature with 4% paraformaldehyde in PBS. After fixation, cells were washed twice with PBS, permeabilized with PBST (PBS + 0.25% Triton X-100) for 20 min, blocked in blocking solution (PBS + 5% normal goat serum) for another 30 min, and finally incubated overnight at 4 °C with the first primary antibody in blocking solution. The next day, coverslips were extensively washed with PBS and incubated for 2 h at room temperature in the appropriate fluorophore-conjugated secondary antibody solution (Alexa 488- or Alexa 594-conjugated secondary antibody (Molecular Probes, Invitrogen) in blocking solution). After washing with PBS, the coverslips were incubated again overnight in primary antibody solution for the second antigen, and the procedure for conjugation of the fluorophore-conjugated secondary antibody was repeated as above. Finally, cell nuclei were counterstained with 4′,6-diamidino-2-phenylindole (DAPI), and coverslips were mounted on glass slides with ProLong Antifade reagent (Invitrogen).
# Cells cultured on coverslips from three independent biological replicates were imaged with an IN Cell Analyzer 6000 high-performance laser-based confocal imaging system and a ×40 objective (GE Healthcare Life Sciences, Marlborough, MA). Image preparation, assembly, and analysis were performed with ImageJ (NIH) and Photoshop CS. Change in contrast and evenness of the illumination was applied equally to all images presented in the study. The following procedure was used for low-throughput measurements. First, original raw tiff files were opened in ImageJ, the nucleus of all neurons in the image was located based on Map2 immunostaining, then average pixel intensity corresponding to Arc immunofluorescence was measured for a 30-pixel spot positioned at the center of the nuclear compartment. Second, for each measure of Arc nuclear immunofluorescence pixel intensity, a measure of background pixel intensity from the same image channel was acquired and subsequently subtracted from the Arc nuclear immunofluorescence pixel intensity value. Finally, Arc immunofluorescence signal from untreated samples was used to establish an objective threshold (two standard deviations above the nuclear Arc immunofluorescence signal averaged from a representative population of untreated neurons) and allow comparison of nuclear Arc expression between different experimental conditions.
# Neuro2a cells = conditions: for Fold-change to WT: protein half-life in Neuro2a
# Description: Next, we aimed to determine whether the K24, K33, K55, and K70 residues participate in Arc protein turnover. […] We also included K70 in this experiment because of its position in the coiled-coil and nuclear retention domains of Arc (Fig. 5e) as well as its relative proximity to K55. For this test, we used site-directed mutagenesis to generate plasmids that would allow overexpression of an acetyl-mimic/unmodifiable mutant Arc-Myc-FLAG protein (lysine (K) to glutamine (Q) mutant) for each of these four sites. After transfecting sets of Neuro2a cells with these different constructs, we inhibited translation with CHX and monitored overexpressed protein levels for up to 6 h after.
# Lysates were collected at the indicated time points and Arc-Myc-FLAG protein level analyzed in every sample by western blotting with an anti-FLAG antibody. Representative western blots are presented on top and quantification of data normalized to corresponding β-actin and presented as percentage of Arc-Myc-FLAG level (±SEM) at the initial time point after CHX application (t = 0). Curve represents exponential decay fit. b Estimate of protein half-life Arc for WT Arc-Myc-FLAG and each acetyl-mimic mutant is presented in table. c WT and acetyl-mutant Arc-Myc-FLAG polyubiquitination was determined in lysates from overexpressing Neuro2a cells. Lysates were immunoprecipitated with anti-FLAG and western blotted with anti-Ub or anti-Arc as indicated.
# Neuro2A cells were cultured in DMEM (supplemented with 10% fetal bovine serum (Gemini-Bio-Products, West Sacramento, CA), penicillin (50 units ml^−1), and streptomycin (50 µg ml^−1)) and transfected overnight using Lipofectamine 2000 (Invitrogen) according to the manufacturer’s protocol. The Neuro2A cell line was generously shared by Dr. Grace Gill.
# The pCMV6-Arc-Myc-DDK (FLAG) plasmid (MR206218) was purchased from OriGene Biotechnologies (Rockville, MD). The Arc-Myc-FLAG K24Q, K24R, K33Q, K55Q, K70Q, and K70R plasmids were generated with the help of the Q5 Site-Directed Mutagenesis Kit from New England BioLabs (Ipswich, MA) using WT pCMV6-Arc-Myc-FLAG as template. All constructs were verified by DNA sequencing.
molecule,measurement,setting,value
C[C@@H](NC(=O)C(=O)c1c[nH]c2ccc([N+](=O)[O-])cc12)c1ccccc1 [TCS 1205],Reason for exclusion,primary cortical neurons,Cell death - toxicity
"Nc1ccccc1NC(=O)c1ccc(CNC(=O)OCc2cccnc2)cc1 [entinostat, reference compound]",impact on acetyl-H3K9 immunofluorescence (Z-score),acetyl-H3K9,strong impact
same,"occurrence of neuronal nuclei with above threshold nuclear Arc immunofluorescence signal, factor in relation to control (DMSO plus BDNF)",[1],≥ 1.5
COC(=O)[C@@]1(O)C[C@H]2O[C@]1(C)n1c3ccccc3c3c4c(c5c6ccccc6n2c5c31)C(=O)NC4 [K252a],effect on BDNF-induced increase of nuclear Arc,[2],effectively prevented the increase of nuclear Arc
C[C@@H]1C[C@@H]([C@H](O)CC2CC(=O)NC(=O)C2)C(=O)[C@@H](C)C1 [cycloheximide],effect on BDNF-induced increase of nuclear Arc,[2],effectively prevented the increase of nuclear Arc
"Oc1cc(O)c2c(c1)O[C@H](c1cc(O)c(O)c(O)c1)[C@H](O)C2 [Epigallocatechin, Epigallocatechol, Epigallocatechin]",Reason for exclusion,primary cortical neurons,Cell death - toxicity
CCCCN(CC)c1nc(C)nc2c1c(C)c(C)n2-c1c(C)cc(C)cc1C.Cl [Antalarmin hydrochloride],Reason for exclusion,primary cortical neurons,Cell death - toxicity
COc1cc2c(NC3CCN(C(C)C)CC3)nc(C3CCCCC3)nc2cc1OCCCN1CCCC1 [UNC 0638],Reason for exclusion,primary cortical neurons,Cell death - toxicity
CNCC[C@H](Oc1cccc2ccccc12)c1cccs1 [Duloxetine],Reason for exclusion,primary cortical neurons,Cell death - toxicity
"Cc1c2oc3c(C)ccc(C(=O)N[C@@H]4C(=O)N[C@H](C(C)C)C(=O)N5CCC[C@H]5C(=O)N(C)CC(=O)N(C)[C@@H](C(C)C)C(=O)O[C@@H]4C)c3nc-2c(C(=O)N[C@@H]2C(=O)N[C@H](C(C)C)C(=O)N3CCC[C@H]3C(=O)N(C)CC(=O)N(C)[C@@H](C(C)C)C(=O)O[C@@H]2C)c(N)c1=O [actinomycin D] (I: T[dV]P[Sar][NMeV] / II: T[dV]P[Sar][NMeV]; ester I:1-I:C, II:1-II:C; linker I:N-II:N via Actinocin(9to1))",effect on BDNF-induced increase of nuclear Arc,[2],effectively prevented the increase of nuclear Arc
"CC(C)COc1ccc(CNC(=O)N(Cc2ccc(F)cc2)C2CCN(C)CC2)cc1 [Pimavanserin (ACP-103), Pimavanserin]",Reason for exclusion,primary cortical neurons,Cell death - toxicity
B1,Estimated t½,Neuro2a cells,2.77 h
same,Fold-change to WT,Neuro2a cells,1.00
B2,Estimated t½,Neuro2a cells,2.63 h
same,Fold-change to WT,Neuro2a cells,−1.05
B3,Estimated t½,Neuro2a cells,2.40 h
same,Fold-change to WT,Neuro2a cells,−1.15
